# Values of other authors, collected in patent US7423042B2, “Compounds” (Glaxo Group Limited, priority 2005, dated 2008).
# Key:
# [1] = tested on: TGF-β-induced increases in fibronectin and thrombospondin; settings: Laping et al., 2002
# [2] = tested on: synthesis of pro-inflammatory proteins including IL-6, IL-8, GM-CSF, RANTES and COX-2; settings: a number of different cell types
compound,measurement,setting,value
COc1nccc(-c2c(-c3ccc(F)cc3)ncn2C2CCNCC2)n1 [SB-242235],inhibition of TGF-β-induced increases in fibronectin and thrombospondin,[1],inhibited
C[S+]([O-])c1ccc(-c2nc(-c3ccncc3)c(-c3ccc(F)cc3)[nH]2)cc1 (stereo not drawn) [SB-203580],"decreasing the synthesis of pro-inflammatory proteins (IL-6, IL-8, GM-CSF, RANTES, COX-2)",[2],effective
Fc1ccc(-c2nc3n(c2-c2ccncc2)CCS3)cc1 [SK&F 86002],"decreasing the synthesis of pro-inflammatory proteins (IL-6, IL-8, GM-CSF, RANTES, COX-2)",[2],effective
